Experimental data: article PMC4586518, “Melanin production through novel processing of proopiomelanocortin in the extracellular compartment of the auricular skin of C57BL/6 mice after UV-irradiation” (Scientific Reports, 2015)
Entries after “also recorded” stand apart in the source; their conditions may differ. Blank lines part the entries; values can stand above or below the substance they belong to. No end group written: not given here.

Assays:
frog skin = tested on: frog skin; set-up: method as in PMID 2822931; details: cited from earlier work
lizard skin = tested on: lizard skin; set-up: method as in PMID 2537778; details: cited from earlier work
melanin production = details: bioassay studies on melanin production; cited from earlier work
MC-1R [1] = tested on: MC-1R; set-up: method as in 2 sources, ref 23 = [23]; PMID 17317724; doi:10.1096/fj.06-7398com; Rousseau K. et al. Proopiomelanocortin (POMC), the ACTH/melanocortin precursor, is secreted by human epidermal keratinocytes and melanocytes and stimulates melanogenesis . FASEB J 21 , 1844 – 1856 ( 2 ||| ref 34 = [34]; PMID 1556905; doi:10.1016/0024-3205(92)90347-r; Slominski. A. et al. Melanotropic activity of gamma MSH peptides in melanoma cells . Life Sci , 50 , 1103 – 1108 ( 1992 ). 1556905 10.1016/0024-3205(92)90347-r; details: cited from earlier work
Source text: To clarify the mechanism of melanin production after UV-irradiation, we assessed the expression of POMC and POMC-derived peptides after UV-irradiation to the skin of the murine auricle.

MC-1R [2] = details: cited from earlier work
Source text: Melanin plays an important role in protecting skin after UV-irradiation. α-MSH is a major catalyst for melanogenesis in the skin following UV-irradiation. α-MSH-LI and ACTH-LI may be present in culture media of normal keratinocytes, fibroblasts, melanocytes, and their cell extracts. Although POMC and POMC-derived peptides such as ACTH and α-MSH are released from the intermedia of the pituitary, it is unlikely that pituitary secretions contribute to local pigmentation. In the present report, POMC-related peptides were detected in the UV-irradiated auricle ... || Structure-activity analyses of α-MSH have reported information on the essential sequence required for MC-1R binding and melanin production. […] However, Ac-His-Phe-Arg-Trp-NH2 had 400,000-fold less activity (EC50 20 μM) than α-MSH in a frog skin bioassay[31] and approximately 7,000-fold less activity (EC50 1 μM) in a lizard skin bioassay. Furthermore, the N-terminal region of α-MSH is ...

mouse melanoma B16 cells = details: 72 h
Method: (B). […] C. […] Each point and line represents the mean ± SEM (n = 4).
(§1) Melanin production activity was performed as follows: B16 cells and normal human melanocytes (TOYOBO. Osaka, Japan) were seeded at the density of 1 × 10[5] cells in 24-well plates and allowed to attach overnight. […] Cells were solubilized in 1 M NaOH at 60°C, and melanin content was measured spectrophotometrically at 475 nm.

MC-1R [3] = target: T1, MC-1R (Mus musculus, UniProt Q01727); assay: Inhibition of α-MSH- or ACTH(1–8)-induced melanin production in B16 cells by MC-1R antagonist; type: cell-based; details: dose-dependent effect of antagonist, n = 4
T1 construct: Mouse melanoma cell line B16[43], which express MC-1R and produce melanin; host or cells: B16 mouse melanoma cells (adherent, whole cells)
T1 sequence (Q01727 whole entry): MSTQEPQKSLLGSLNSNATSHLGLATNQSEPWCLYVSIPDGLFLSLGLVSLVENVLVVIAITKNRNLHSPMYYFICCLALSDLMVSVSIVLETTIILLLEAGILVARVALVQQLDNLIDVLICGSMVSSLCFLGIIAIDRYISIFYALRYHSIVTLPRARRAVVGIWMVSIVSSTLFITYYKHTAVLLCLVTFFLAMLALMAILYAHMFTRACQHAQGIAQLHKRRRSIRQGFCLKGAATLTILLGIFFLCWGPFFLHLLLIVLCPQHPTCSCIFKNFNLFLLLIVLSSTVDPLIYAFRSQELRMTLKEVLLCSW
Method: Figure 3 ACTH(1–8)-mediated melanin production via the MC-1R. (A). The Radioreceptor assay of ACTH(1–8) (open circle) and α-MSH (closed circle) in mouse melanoma B16 cells. B16 mouse melanoma cells were incubated with [^125I]-α-MSH and 10^−7–10^−11 M ACTH(1–8) or 10^−6–10^−11 M α-MSH. The receptor binding of [^125I]-α-MSH was expressed as 100% in the absence of α-MSH and 0% in the presence of 1 μM α-MSH and calculated as relative activity. (B). ACTH(1–8)- and α-MSH-mediated melanin production. B16 mouse melanoma cells were incubated with 10^−7–10^−11 M ACTH(1–8) (open circle) or 10^−6–10^−11 M α-MSH (closed circle). Melanin levels are expressed as 100% and 0% in the presence of 1 μM α-MSH and absence of α-MSH, respectively, and calculated as the relative activity. C. […] Melanin levels are expressed as 100% and 0% in the presence of 1 μM α-MSH and absence of α-MSH, respectively, and calculated as the relative activity.
as §1, with “nm. Melanin levels were expressed as 100% and 0% in the presence of 1 μM α-MSH and absence of α-MSH, respectively. […]” for “nm.”

Substance: Ac-His-Phe-Arg-Trp-NH2
EC50 (frog skin; frog skin, read-out: EC50, frog skin bioassay): 20000 nM
fold less activity than α-MSH, frog skin bioassay (frog skin; relative to α-MSH): 400,000 fold
EC50 (lizard skin; lizard skin, read-out: EC50, lizard skin bioassay): 1000 nM
fold less activity than α-MSH, lizard skin bioassay (lizard skin; relative to α-MSH): approximately 7,000 fold
melanotropic response (melanin production): minimal synthetic fragment capable of eliciting a melanotropic response

Substance: adrenocorticotropic hormone (SYSMEHFRWGKPVGKKRRPVKVYPNGAEDESAEAFPLEF; Corticotropin; UniProt P01189 138-176, looked up) [ACTH, intermediate form of α-MSH, produced from POMC; 4.5 kDa]
agonism at MC-1R (MC-1R [1]; MC1-R): known agonists

Substance: γ-MSH
antagonism against MC-1R (MC-1R [1]): competitive antagonist against MC-1R
potency when binding to MC-1R (MC-1R [1]; compared with ACTH(1–8)): potent when binding to MC-1R, but at low potency levels similar to ACTH(1–8)
melanin production (MC-1R [2]): increases melanin production

EC50 (mouse melanoma B16 cells): 80 nM
Substance: SYSMEHFR [ACTH(1–8)]

Substance: ASP(87–132)-NH2: a MC-1R antagonist (TPLSAPCVATRNSCKPPAPACCDPCASCQCRFFRSACSCRVLSLNC-NH2; cysteine pairing not given here; UniProt P42127 87-132, looked up, fragment)
effect on ACTH(1–8)-mediated melanin production (MC-1R [3]; 10^−7 M ACTH(1–8)): competitively attenuated; also recorded: decreased both ACTH(1–8)- and α-MSH-mediated melanogenesis
effect on α-MSH-mediated melanin production (MC-1R [3]; 10^−8 M α-MSH): decreased both ACTH(1–8)- and α-MSH-mediated melanogenesis
